Laboratory results: patent US20230126310A1 (priority 2020, published 2023)
Structures can show the parent of a compound that is named as a salt. Where two headings read alike, the source gives them in different places.

Key:
CaCo-2 cells = assay: Compound cytotoxicity against CaCo-2 cells at 48 hours; format: cell-based, Human; details: read-out: CC50: concentration of 50% cytotoxicity; Table 5, further results of Examples 1 and 2; mean ± spread
Description: The cytotoxicity of the profiled compounds towards CaCo-2 cells at 48 hours was assessed. […] After 48 hours, cytotoxicity was evaluated using both digital phase contrast readout as described above and ATP determination (Cell titre-glo, Promega Corp).

SARS-CoV-2 = details: for % Inh. (% Inhibition of SARS-CoV-2): 10 µM
[1] = system: SARS-CoV-2 (BetaCov/Belgium/GHB-03021/2020); assay: microbe, parasite or virus in culture; format: cell-based
[2] = Table 5, further results of Examples 1 and 2
[3] = read-out: IC50: concentration of 50% inhibition of virus infection, Table 5, further results of Examples 1 and 2, […]

Row | Molecule | CC50 (CaCo-2 cells) | IC50 (SARS-CoV-2) | pIC50 (SARS-CoV-2) | % Inh. (% Inhibition of SARS-CoV-2) (SARS-CoV-2) | pIC50: -log10 of IC50 (SARS-CoV-2; [2]) | IC50 (SARS-CoV-2; [3]) | Maximum confluence reached (%) [1]
1 | CC(C)(C)c1cc(/C=C(\C#N)C(N)=S)cc(C(C)(C)C)c1O [Tyrphostin AG 879 (AG 879), Tyrphostin AG 879] | 1.36 ± 0.08 µM | 0.2 µM | 6.70 | 104.2% | 6.70 | 0.2 ± 0.01 µM | 
2 | CCCCC1(C2CCCC2)Cc2cc(OCCCC(=O)O)c(Cl)c(Cl)c2C1=O (centres unmarked) [DCPIB] | 24.6 ± 11.7 µM |  |  | 80.3% |  |  | 
3 | FC(F)(F)Oc1ccc2nc(-c3ccc(OCCOCCOc4ccc(-c5nc6ccc(OC(F)(F)F)cc6[nH]5)nc4)cn3)[nH]c2c1 [AI-10-49] | 6.58 ± 9.76 µM |  | 6.68 | 103.8% | 6.72 | 0.19 ± 0.06 µM | 
4 | NC(=NC1C2CC3CC(C2)CC1C3)Nc1ccc(I)cc1 (centres unmarked) [IPAG] | 11.5 ± 9.83 µM |  |  | 180.5% | 5.22 | 5.96 ± 0.57 µM | 81.85%
5 | CCS(=O)(=O)N(Cc1cccnc1)c1cccc(-c2ccc(C#N)cc2)c1 [CBiPES] | 13.4 ± 6.58 µM |  |  | 139.6% | 4.77 | 17.1 ± 1.17 µM | 
6 | polidocanol | 10.3 ± 1.62 µM |  | 6.68 | 85.8% | 6.66 | 0.22 ± 0.02 µM | 
7 | CCOC(=O)c1ncc2[nH]c3ccc(OCc4ccccc4)cc3c2c1COC.Cl [ZK-93423] | 0.91 ± 0.13 µM | 1.28 µM | 5.89 | 75.1% | 5.87 | 1.34 ± 0.92 µM | 
8 | C=C(c1ccccc1OCc1cccc(Cl)c1)n1ccnc1 [Cloconazole HCl] | 33 µM |  |  | 92.8% |  |  | 
